Article PMC6145916, “Interaction of mitochondrial fission factor with dynamin related protein 1 governs physiological mitochondrial function in vivo” (Scientific Reports, 2018)
Where no end group is shown, it is not given here.

Legend:
[1] = test system: Drp1; test: Mitochondrial Drp1 content in brain of wild-type mice; format: in vivo, mouse; conditions: 3 mg/Kg/day, subcutaneous osmotic pump, 8-week treatment, WT mice; Drp1 relative to ALDH2; n = 4 mice
Text: (§1) (a) Quantification of mitochondrial Drp1 content relative to ALDH2 (a mitochondrial matrix enzyme) in the mitochondrial fraction isolated from total brain lysate of wild-type mice (Western blot shown in Fig. S3B) (n = 4 mice). (b) ATP content in brain tissue of wild-type mice (n = 4 mice, 2 replicates). (c) Representative transmission electron microscopy images of the striatum from wild-type mice. […] The first principal component represents 42% of the variation. (f) Local linear embedding dimensionality reduction and visualization of all behaviors collected weekly from TAT- (black) or P259- (purple) treated WT and TAT- (white) treated R6/2 mice over the course of 8 weeks. […] All behavior and survival tests were conducted by an experienced observer who was blinded to the treatment groups. Data are mean ± s.e.
Five-week old R6/2 HD mice and their wild-type littermates (a total of 60 mice) were implanted subcutaneously with a 28-d Alzet osmotic pump with either P259-TAT or TAT control peptide (15 mice per group) to be delivered continuously at a rate of 3 mg/Kg/day, as previously described. […]
The effect of peptides on GTPase activity of Drp1 was measured by incubating recombinant Drp1 […]
for 1 hour at 37 °C. GTPase activity was measured using a colorimetric GTPase assay kit (Novus Biologicals, CO, USA) as instructed by the manufacturer. […]

[2] = test system: striatal neurons; test: Transmission electron microscopy of striatum; format: in vivo, mouse; conditions: 3 mg/Kg/day, 8 weeks, WT mice; 806 (TAT) and 1109 (P259) mitochondria from ten images per condition
Text: as §1
Five-week old R6/2 HD mice and their wild-type littermates (a total of 60 mice) were implanted subcutaneously with a 28-d Alzet osmotic pump with either P259-TAT or TAT control peptide (15 mice per group) to be delivered continuously at a rate of 3 mg/Kg/day, as previously described. All mice were implanted twice for a total of an 8-week treatment. 20 of the WT mice were implanted 3 times for a total of a 12-week treatment at 3 mg/Kg/day. […]
To quantify mitochondrial motility, the images at time 0 and 150 seconds w ere overlaid. […]

[3] = test system: Mff-Drp1 interaction; test: Co-immunoprecipitation of Drp1 and Mff from SH-SY5Y cell lysate; format: cell-based, human; conditions: 1 µM, 1 hour, relative to TAT-carrier control; n = 3, with 2 replicates

In the case of “YGRKKRRQRRRGSGIIQLPEIVVV-NH2 (C-terminus assumed) [P259]”, the “reduction of mitochondrial Drp1 association (brain)” value [1] is reported as ~ 80%, the “mitochondrial size and shape in striatal neurons (electron microscopy)” value [2] is reported as “larger and more elongated mitochondria in striatal neurons” and the “Mff-Drp1 interactions (co-IP)” value [3] is reported as “significant reduction in Mff-Drp1 interactions”.
